The text below walks through data of PubChem BioAssay AID602191 (Broad Institute, 2012).

The assay addresses Scavenger receptor class B member 1 (Mus musculus) (UniProt Q61009). Briefly: activators of SR-BI-mediated HDL uptake, dose response, cell-based, ldlA[mSR-BI] CHO, DiI fluorescence, cherry-pick (AID 602191).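 For AC40: potency of activators raising HDL uptake.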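 For activation (HDL uptake increase): 0% = median of DMSO wells and 100% = twice the DMSO signal.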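 For all read-outs here: cell fluorescence from internalized DiI-labeled HDL after washing.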 As to conditions: ldlA[mSR-BI] CHO cells, 3 h; for activation (HDL uptake increase): at 35 µM (top of the series).

Calls of active or inactive are those of the source.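 Rule for the calls: active = fitted curve reaches 40% activation at a concentration no higher than the top valid tested dose; inconclusive = flat fit between 30% and 70% activation, or poor fit; inactive = uptake decrease, flat fit within 30% of zero, the rest.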 Residues, ends and D or L forms follow the SMILES beside them.

Scavenger receptor class B member 1 (Mus musculus), sequence (Q61009 whole entry, looked up): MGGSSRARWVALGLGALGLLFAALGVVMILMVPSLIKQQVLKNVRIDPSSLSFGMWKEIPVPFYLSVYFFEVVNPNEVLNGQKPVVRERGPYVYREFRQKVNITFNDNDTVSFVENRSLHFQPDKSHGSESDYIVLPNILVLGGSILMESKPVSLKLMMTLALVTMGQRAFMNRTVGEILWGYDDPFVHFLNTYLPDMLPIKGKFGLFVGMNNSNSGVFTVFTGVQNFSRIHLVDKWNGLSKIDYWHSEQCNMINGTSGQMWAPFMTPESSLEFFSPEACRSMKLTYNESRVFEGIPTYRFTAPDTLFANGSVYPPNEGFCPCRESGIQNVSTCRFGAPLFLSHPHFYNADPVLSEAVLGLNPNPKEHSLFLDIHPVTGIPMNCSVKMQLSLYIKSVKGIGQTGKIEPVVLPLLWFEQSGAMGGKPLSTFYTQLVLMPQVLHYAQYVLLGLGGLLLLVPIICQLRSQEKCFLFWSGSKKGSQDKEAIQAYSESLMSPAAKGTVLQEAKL

Regarding `O=C(COC(=O)C1CCCCC1)Nc1cccc(Br)c1`, the activation (HDL uptake increase) was -5.26% (inactive).

On to `COc1ccc2c(c1OC)C(=O)OC2CC(=O)O` (stereo unspecified), for which the activation (HDL uptake increase) was 3.81% (inactive).

For `CCN1C[C@@H]2[C@@H]3C(=O)N(Cc4ccccc4)C(=O)[C@@H]3[C@](C)(C1=O)N2C(=O)c1ccc(Br)cc1`, the activation (HDL uptake increase) was 1.77% (inactive).

Consider `Cn1nnnc1SCCNC(=O)C1CCC(=O)N(Cc2ccccc2F)C1` (stereo unspecified), for which the activation (HDL uptake increase) is -10.7% (inactive).

In the case of `O=C1CCCC/C=C\C[C@H](CC(=O)N(CCO)Cc2ccccc2)C(=O)N2CCC[C@@H]2CO1`, the activation (HDL uptake increase) is -5.56% (inactive).

Consider `CC(C)NC(=O)c1ccc(CS(=O)(=O)c2ccc(Br)cc2)o1`, for which the activation (HDL uptake increase) is -7.98% (inactive).

Consider `CCC1C(=O)NCCN1C(=O)c1ccc(OC)c(OC2CCN(C(C)=O)CC2)c1` (stereo unspecified), for which the activation (HDL uptake increase) is -6.7% (inactive).

For `CC[C@H](C)[C@@H]1NC(=O)[C@H]([C@@H](C)CC)NC(=O)[C@@H](CC(C)C)NC(=O)[C@H](Cc2ccccc2)NC(=O)[C@H](Cc2ccccc2)NC(=O)[C@@H]2CCCN2C(=O)[C@@H]2CCCN2C(=O)[C@H](C(C)C)NC(=O)[C@H](CC(C)C)NC1=O` (HELM PEPTIDE1{F.F.[dL].I.I.L.V.P.P}$PEPTIDE1,PEPTIDE1,1:R1-9:R2$$$V2.0), the activation (HDL uptake increase) was 5.97% (inactive).

With `COc1cccc(OCc2cc(C(=O)NC3CCOCC3)no2)c1`, the activation (HDL uptake increase) is -16.2% (inactive).

As for `COc1cc(-n2c(C)nc3cc(C(=O)NCC4CCCO4)ccc32)cc(OC)c1OC` (stereo unspecified), the activation (HDL uptake increase) was -12.1% (inactive).

Take `COc1ccccc1N(C(=O)c1snc(C(N)=O)c1N)C(C(=O)NCCC(C)C)c1ccco1` (stereo unspecified): the activation (HDL uptake increase) is 7.43% (inactive).

Turning to `COc1ccc(S(=O)(=O)N2CCOCC2)cc1NC(=O)COC(=O)C1CC2CCCC(C1)C2=O` (stereo unspecified), the activation (HDL uptake increase) was -6.79% (inactive).

With `COCCN(CC(=O)Nc1cc(Cl)ccc1-n1cncn1)Cc1nc2ccccc2c(=O)[nH]1`, the activation (HDL uptake increase) was -4.92% (inactive).

On to `CN1CCN(C(=O)C2CCCN(S(=O)(=O)c3ccc(Br)cc3)C2)CC1` (stereo unspecified), for which the activation (HDL uptake increase) is -5.87% (inactive).

In the case of `O=C(NC(=S)N(Cc1ccccc1)Cc1ccccc1)c1ccccc1F`, the activation (HDL uptake increase) was -11.7% (inactive).

As for `CCc1nc(SCC(=O)Nc2ccc([N+](=O)[O-])cc2)n[nH]1`, the activation (HDL uptake increase) was -10.4% (inactive).

For `NCCCC[C@H]1CNC(=O)C(=O)N1CCc1cccc2ccccc12`, the activation (HDL uptake increase) is -5.05% (inactive).

In the case of `NCCCC[C@H]1CNC(=O)C(=O)N1CCc1cc(C(F)(F)F)cc(C(F)(F)F)c1`, the activation (HDL uptake increase) is 6.34% (inactive).

With `Cc1c(C(=O)N(C)C(C)c2ccncn2)oc2c(F)cccc12` (stereo unspecified), the activation (HDL uptake increase) is -9.31% (inactive).

With `CCOC(=O)C1=C(COC(=O)[C@H](C)NS(=O)(=O)c2ccc(NC(C)=O)cc2)NC(=O)NC1C` (stereo partly specified), the activation (HDL uptake increase) was -9.73% (inactive).

As for `COc1ccc2c(CC(=O)NCC3CCC(C(=O)O)CC3)cc(=O)oc2c1` (stereo unspecified), the activation (HDL uptake increase) was 15.1% (inactive).

`COc1ccccc1Cc1nnnn1CC(=O)O`: the activation (HDL uptake increase) was -7.37% (inactive).

Take `O=C(COC(=O)C1CC1)Nc1ccc(OC(F)F)cc1`: the activation (HDL uptake increase) is 4.41% (inactive).

For the compound `CCN1CCN(C(=O)C2CCC(=O)N(Cc3cccc(C(F)(F)F)c3)C2)CC1` (stereo unspecified), the activation (HDL uptake increase) was -0.502% (inactive).

Turning to `CCOC(=O)C(NC(=O)CC(C)C)(Nc1sc2c(c1C(N)=O)CCCC2)C(F)(F)F` (stereo unspecified), the AC40 is > 35 µM (inactive).

For `COc1ccccc1N1CCN(C2CCCN(C(=O)c3ccccn3)C2)CC1` (stereo unspecified), the activation (HDL uptake increase) was -4.31% (inactive).

As for `O=C(Cn1c(C(=O)NCCCN2CCOCC2)cc2sccc21)c1ccccc1`, the activation (HDL uptake increase) is 0.656% (inactive).

In the case of `Cc1ccc(-n2ncc3c(=O)n(CC(=O)N4CCN(c5ccccc5F)CC4)cnc32)cc1C`, the activation (HDL uptake increase) is -20.1% (inactive).

Turning to `C[C@@H]1CN([C@@H](C)CO)C(=O)Cc2cc(NC(=O)Nc3ccc(C(F)(F)F)cc3)ccc2O[C@@H]1CN(C)S(=O)(=O)c1ccc(Cl)cc1`, the AC40 was 31.1 µM.

For `Cn1c(SCC(=O)N2CCCCCC2)nc2c(c1=O)SCC2`, the activation (HDL uptake increase) was -10.7% (inactive).

With `COc1ccccc1CN1C(=O)CCC1(C)C(=O)NCc1cccnc1` (stereo unspecified), the activation (HDL uptake increase) is -8.82% (inactive).

Turning to `O=C(CNC(=O)c1cncc(Br)c1)Nc1ccc(F)c(F)c1F`, the activation (HDL uptake increase) was -11% (inactive).

As for `Cc1ccc(C2(CCNCc3ccc(N(C)C)cc3)CCOC(C(C)C)C2)cc1` (stereo unspecified), the activation (HDL uptake increase) was -1.19% (inactive).

With `CCN(CC(=O)Nc1c(F)cccc1F)C(=O)C1CCN(S(=O)(=O)c2ccc(F)cc2)CC1`, the activation (HDL uptake increase) is 11.6% (inactive).

`Nc1ncnc2c1ncn2[C@@H]1O[C@H](CNCc2cccn2-c2nccs2)[C@@H](O)[C@H]1O`: the activation (HDL uptake increase) was 10.3% (inactive).

In the case of `O=C(COC(=O)C1CCN(/C=C/C(=O)C(F)(F)F)CC1)Nc1cccc(F)c1`, the activation (HDL uptake increase) was -7.38% (inactive).

In the case of `Cc1cccc(N2C(=O)N3[C@H](c4ccc(Br)cc4)[C@@H]4C(=O)N(C(C)(C)C)C(=O)[C@@H]4[C@]3(C)C2=O)c1`, the activation (HDL uptake increase) was 6.14% (inactive).

Turning to `CC(C)OC(=O)C1C(=O)CC(C)(O)C(C(=O)OC(C)C)C1c1cccc([N+](=O)[O-])c1` (stereo unspecified), the activation (HDL uptake increase) is -0.289% (inactive).

With `O=C(CCNC(=O)c1ccccc1Cl)NCC(c1ccc(F)cc1)N1CCOCC1` (stereo unspecified), the activation (HDL uptake increase) was -2.65% (inactive).

`COc1cc(C(CCN2CCCC(C)C2)c2c(OC)cc(OC)c3c(-c4ccccc4)cc(=O)oc23)cc(OC)c1OC` (stereo unspecified): the activation (HDL uptake increase) is -1.55% (inactive).

As for `COc1ccc2c(c1)C(C)(CCN)C(=O)N2C` (stereo unspecified), the activation (HDL uptake increase) was -0.472% (inactive).

With `COc1ccccc1NC(=O)CCN1CCCCCC1`, the activation (HDL uptake increase) is -12.4% (inactive).

With `Cc1ccc(SCC(=O)NNC(=O)CCS(=O)(=O)c2ccc(C)cc2)cc1`, the activation (HDL uptake increase) was 0.551% (inactive).

With `Cc1ccccc1-n1nc2c(c1NC(=O)c1ccco1)CS(=O)(=O)C2`, the activation (HDL uptake increase) is -9.94% (inactive).

`C=CC[C@@H](CC(=O)N[C@@H](CO)Cc1ccccc1)C(=O)N[C@@H](COC(=O)[C@@H](CC=C)Cc1ccc(F)cc1)Cc1c[nH]c2ccccc12`: the activation (HDL uptake increase) was -7.03% (inactive).

Take `O=C(Cn1nc(-c2ccccc2)ccc1=O)Nc1ccc(-n2cnnn2)cc1`: the activation (HDL uptake increase) is 12% (inactive).

On to `N#C/C(=C/c1cn(-c2ccccc2)nc1-c1cccc(OCc2ccccc2)c1)C(=O)NCCCn1ccnc1`, for which the activation (HDL uptake increase) is 12.2% (inactive).

Take `Cc1c(NC(=O)c2ccc(Br)o2)cccc1C(=O)O`: the activation (HDL uptake increase) was 5.98% (inactive).

Regarding `CCOC(CNC(=O)C1CCN(S(=O)(=O)c2ccc3nc4c(c(C(=O)O)c3c2)CCCCC4)CC1)OCC`, the activation (HDL uptake increase) was 5.08% (inactive).

In the case of `COc1ccccc1-c1nc(SCC(=O)Nc2ccccc2F)n[nH]1`, the activation (HDL uptake increase) was -24.3% (inactive).

On to `O=C(NCCCc1ccccc1)c1ccc(CS(=O)Cc2ccc(Cl)cc2)o1` (stereo unspecified), for which the activation (HDL uptake increase) was 5.61% (inactive).

With `COc1cccc(/C=N/n2c(SC)nnc2-c2ccccc2)c1O`, the activation (HDL uptake increase) was -1.1% (inactive).

Take `Cc1ccc(S(=O)(=O)N(c2cccc(C)c2)C2CCS(=O)(=O)C2)cc1` (stereo unspecified): the activation (HDL uptake increase) is -9.17% (inactive).

Regarding `Cc1cc(C)c2[nH]c(=O)c(CN(CC3CCCO3)C(=O)c3cnccn3)cc2c1` (stereo unspecified), the activation (HDL uptake increase) is -7.36% (inactive).

For `Cc1ccc(OCCC(=O)OCC(=O)NNC(=O)c2ccccc2)cc1`, the activation (HDL uptake increase) was 8.09% (inactive).

Take `CCN1CCN(C(CNS(=O)(=O)c2ccc(Br)cc2)c2cccnc2)CC1` (stereo unspecified): the activation (HDL uptake increase) was -1.44% (inactive).

`COc1ccccc1C(=O)NC(=O)COC(=O)c1cccc(NC(C)=O)c1`: the activation (HDL uptake increase) is -5.38% (inactive).

In the case of `O=C(CSc1nnc(Cc2cccs2)n1-c1ccccc1)NC1CCCCC1`, the activation (HDL uptake increase) is -15.7% (inactive).

As to `CNC[C@H]1Oc2c(NS(=O)(=O)c3ccc(OC)cc3)cccc2C(=O)N([C@H](C)CO)C[C@H]1C`, the activation (HDL uptake increase) was 9.97% (inactive).

For `CC(=O)Oc1ccc2oc(=O)c3c(c2c1)CCCN3C(=O)CN1CCN(c2ncccn2)CC1`, the activation (HDL uptake increase) is -12.6% (inactive).

As to `C=C1[C@@H](OC(C)=O)[C@]23C[C@@H]1[C@@H](OC(C)=O)CC2[C@]12C4C[C@H]3[C@H]1N(CC)C[C@]4(C)CC[C@@H]2O` (stereo partly specified), the activation (HDL uptake increase) was -3.15% (inactive).

With `CCCCC/C=C\C[C@H](O)/C=C/c1cccc(C[C@H](O)CCCCO)n1`, the activation (HDL uptake increase) was -14% (inactive).

In the case of `CCN(CC)C(=O)C1CC(=O)N(c2ccc(OC)cc2)C1c1ccc(OC)cc1` (stereo unspecified), the activation (HDL uptake increase) was -8.42% (inactive).

In the case of `NC(=O)C1CCN(C(=O)c2ccc(NS(=O)(=O)c3ccc(F)c(F)c3)cc2)CC1`, the activation (HDL uptake increase) is -2.55% (inactive).

In the case of `COC(=O)Cc1c(C)c2ccc(OCc3nn[nH]n3)cc2oc1=O`, the activation (HDL uptake increase) is 4.87% (inactive).

As for `CC(Sc1ccc(S(=O)(=O)N(C)C)cn1)C(=O)NC1CCCC1` (stereo unspecified), the activation (HDL uptake increase) was -1.21% (inactive).

As to `O=C(O)COCC(=O)N1CCc2c([nH]c3ccccc23)C1C(F)(F)F` (stereo unspecified), the activation (HDL uptake increase) is -5.94% (inactive).

Turning to `COCCN(Cc1nnc(-c2cccs2)o1)C(=O)c1cccc(S(=O)(=O)N2CCOCC2)c1`, the activation (HDL uptake increase) was -7.49% (inactive).

Regarding `CCCCn1c(CN2CCN(C(=O)c3ccco3)CC2)nc2c1c(=O)n(C)c(=O)n2C`, the activation (HDL uptake increase) was 2.07% (inactive).

With `COc1ccc(C(=O)NNS(=O)(=O)c2ccccc2)cc1OC`, the activation (HDL uptake increase) is -10.5% (inactive).

As for `CCCCC(=O)OCC(=O)C1(O)Cc2c(O)c3c(c(O)c2C(OC2CC(NC(=O)C(F)(F)F)C(O)C(C)O2)C1)C(=O)c1c(OC)cccc1C3=O` (stereo unspecified), the activation (HDL uptake increase) is 16.6% (inactive).
